For 23 compounds, IC50 results are on record in patent US7667036B2, “Pyrazolo[1,5-a]pyrimidine derivatives” (Teijin Pharma Limited, priority 2004, dated 2010).

The assay deals with MAPKAP-K2 (Homo sapiens, UniProt P49137). The assay is described as follows: MAPKAP-K2 enzyme activity inhibition assay, Method B (33P-ATP, MultiScreen-PH plate). It counts as biochemical. Particulars: recombinant human MAPKAP-K2, 0.5% DMSO, 30 min room temperature, read-out: Inhibitory activity (MAPKAP-K2 IC50 class). On the procedure:
The assay of inhibitory activity was performed according to Method A described below for Compound No. 1, 2, 3, 4, 20, 21, 22, 23, 24, 25, 26, 79, 80 and 81, and Method B described below for the other compounds.
A compound was dissolved in […] to make its concentration to 20 mmol/L, and the resultant solution was stored at −20° C. The stock solution was sequentially diluted with DMSO to prepare a solution having a 200-fold concentration of the required range. Further the solution was diluted with water to 1:20 to prepare a solution having a 10-fold concentration of the required range, and an aliquot of 5 μL of each solution was used for every reaction with 50 μL. During the continuous dilution of all compounds, the final DMSO concentration was maintained at 0.5%. Compounds were routinely tested at a final concentration ranging from 100 μmol/L to 0.03 μmol/L, but were sometimes tested at a lower concentration depending upon their activity.
The reaction was initiated by adding 25 μL of a peptide substrate solution [60 μmol/L substrate peptide, 20 μmol/L ATP, 50 mmol/L Tris buffer (pH 7.5), 0.1 mmol/L EGTA, 0.1% β-mercaptoetanol, 20 mmol/L magnesium acetate, and 0.1 μCi [γ-33P]ATP (specific radio activity: approximately 110 TBq/mmol)] to 5 μL of a 5% DMSO solution of the test compound and subsequently adding 20 μL of a MAPKAP-K2 enzyme solution [10 mU recombinant human MAPKAP-K2, 50 mmol/L Tris buffer (pH 7.5), 0.1 mmol/L EGTA, 0.1% β-mercaptoethanol, 0.1% BSA]. After performing the reaction for 30 min at room temperature, an equivalent volume of 200 mmol/L phosphoric acid solution was added to terminate the reaction. Subsequently, 90 μL of the reaction product was adsorbed on a MultiScreen-PH Plate (Millipore) and then rinsed with 100 mmol/L phosphoric acid solution. After drying the plate, 30 μL of MicroScint-O (Packard BioScience) was added, and further the count per minute was measured by a scintillation counter to determine the inhibitory activity. The substrate peptide was Lys-Lys-Leu-Asn-Arg-Tlr-Leu-Ser-Val-Ala.
• % Control=(X−B)/(Tot−B)×100 • % Inhibition=100—% Control • X=count per minute of a test compound well • B=count per minute of a well without containing enzyme • Tot=count per minute of a well with DMSO solvent only, without containing the test compound (MAPKAP-K2 inhibitory activity) • IC50 value=the compound concentration at 50% inhibition

The term IC50 denotes the concentration that inhibits the measured activity by half.

A value given as a limit tells only on which side of the number the result lay.

Chain of MAPKAP-K2 (P49137 whole entry): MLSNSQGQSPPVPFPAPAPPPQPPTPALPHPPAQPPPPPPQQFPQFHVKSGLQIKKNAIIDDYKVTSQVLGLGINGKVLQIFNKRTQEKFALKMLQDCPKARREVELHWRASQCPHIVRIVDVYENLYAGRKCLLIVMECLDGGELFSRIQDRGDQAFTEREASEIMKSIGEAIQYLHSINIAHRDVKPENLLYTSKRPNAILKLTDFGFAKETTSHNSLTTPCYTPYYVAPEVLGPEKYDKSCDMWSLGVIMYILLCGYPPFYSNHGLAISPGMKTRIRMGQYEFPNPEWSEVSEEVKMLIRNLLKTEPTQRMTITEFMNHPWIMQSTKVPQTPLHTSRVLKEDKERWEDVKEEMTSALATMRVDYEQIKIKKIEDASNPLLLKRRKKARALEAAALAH

`CCC[C@@H]1CCNC[C@H]1Oc1nc2ccnn2c(Nc2ccc(OCC)cc2)c1C` (racemic) [Compound No. 16, (dl)-(4-ethoxyphenyl)-[6-methyl-5-(trans-4-propylpiperidin-3-yloxy)pyrazolo[1,5-a]pyrimidin-7-yl]amine]: the half-inhibitory concentration (IC50) is 2 to 20 µM.
As to `CCOc1ccc(Nc2c(C)c(O[C@@H]3CNCC[C@H]3CC(N)=O)nc3ccnn23)cc1` (racemic) [Compound No. 82, (dl)-trans-2-{3-[7-(4-ethoxyphenyamino)-6-methylpyrazolo[1,5-a]pyrimidin-5-yloxyl-p]peridin-4-yl}acetamide], the IC50 lay within 2 to 20 µM.
In the case of `CCOc1ccc(Nc2c(C)c(OC3CCCNC3)nc3ccnn23)cc1` (stereo not drawn) [Compound No. 5, (dl)-(4-ethoxyphenyl)-[6-methyl-5-(pyperdin-3-yloxy)pyrazolo [1,5-a]pyrimidin-7-yl]-amine], the IC50 was in the range of 2 to 20 µM.
Next, `CCOc1ccc(Nc2c(CCCO)c(O[C@H]3CC[C@H](N)CC3)nc3ccnn23)cc1` [Compound No. 88, 3-[5-(trans-4-aminocyclohexyloxy)-7-(4-ethoxyphenylamino)-pyrazolo [1,5-a]pyrimidin-6-yl]propan-1-ol]: no more than 2 µM; `Cc1c(O[C@H]2CC[C@H](N)CC2)nc2ccnn2c1Nc1ccc(OCCOCc2ccccc2)cc1` [Compound No. 91, [5-(trans-4-aminocyclohexyloxy)-6-methylpyrazolo[1,5-a]pyrimidin-7-yl]-[4-(2-benzyloxyethoxy)phenyl]-amine]: no more than 2 µM; `Cc1c(O[C@H]2CC[C@H](N)CC2)nc2ccnn2c1Nc1ccc(-c2cccc(N)c2)cc1` [Compound No. 93, N-4′-[5-(trans-4-aminocyclohexyloxy)-6-methylpyrazolo[1,5-a]pyrimidin-7-yl] biphenyl-3,4′-diamine]: no more than 2 µM.
`CCc1c(O[C@H]2CC[C@@H](N)CC2)nc2ccnn2c1Nc1ccccc1F` [compound 9]: the IC50 fell in the range of 2 to 20 µM.
The same measure for `CCc1c(O[C@H]2CC[C@@H](N)CC2)nc2ccnn2c1Nc1ccc(F)c(Cl)c1` [compound 10]: 2 to 20 µM; for `C=CCc1c(O[C@H]2CC[C@@H](N)CC2)nc2ccnn2c1Nc1ccc(F)c(Cl)c1` [compound 12]: 2 to 20 µM; for `CCOc1ccc(Nc2c(C)c(O[C@@H]3CC[C@@H](C)NC3)nc3ccnn23)cc1` [compound 17]: 2 to 20 µM.
As to `CCOc1ccc(Nc2c(C)c(O[C@@H]3CC[C@H](C)NC3)nc3ccnn23)cc1` [compound 18], the IC50 fell in the range of 20 to 100 µM.
As for `N[C@H]1CC[C@@H](Oc2cc(Nc3ccc(F)c(Cl)c3)n3ncc(I)c3n2)CC1` [compound 19], the half-inhibitory concentration (IC50) is 20 to 100 µM.
As to `CCOc1ccc(Nc2c(C)c(O[C@@H]3CNCC[C@H]3CCO)nc3ccnn23)cc1` [compound 27], the IC50 is no more than 2 µM.
The same measure for `CCOc1ccc(Nc2c(C)c(OCCN)nc3ccnn23)cc1` [compound 28]: 20 to 100 µM; for `CCOc1ccc(Nc2c(C)c(OCCCN)nc3ccnn23)cc1` [compound 29]: 20 to 100 µM; for `CCOc1ccc(Nc2c(C)c(OCCCCN)nc3ccnn23)cc1` [compound 30]: 2 to 20 µM.
Take `CCOc1ccc(Nc2c(C)c(OC(CN)c3ccccc3)nc3ccnn23)cc1` (centres unmarked) [compound 31]: the IC50 lay in the range of 20 to 100 µM.
Take `CCOc1ccc(Nc2c(C)c(OCC(C)N)nc3ccnn23)cc1` (centres unmarked) [compound 33]: the IC50 lay within 20 to 100 µM.
As to `CCOc1ccc(Nc2c(C)c(OCC(N)CC)nc3ccnn23)cc1` (centres unmarked) [compound 36], the IC50 is 20 to 100 µM.
Turning to `CCOc1ccc(Nc2c(C)c(OCC3(N)CCCC3)nc3ccnn23)cc1` [compound 40], the IC50 lay within 20 to 100 µM.
In the case of `CCOc1ccc(Nc2c(C)c(O[C@H]3CNCC[C@@H]3CCO)nc3ccnn23)cc1` [compound 41], the IC50 was no more than 2 µM.
The same measure for `CCOc1ccc(Nc2c(C)c(OC(CN)CN)nc3ccnn23)cc1` [compound 42]: 20 to 100 µM.
Next, `CCOc1ccc(Nc2c(C)c(OCC(N)(CO)CO)nc3ccnn23)cc1` [compound 43]: 20 to 100 µM.
